Reference: patent US6355799B1, “Substituted benzene compounds, process for their preparation, and herbicidal and defoliant compositions containing them” (ISK Americas Incorporated, priority 1997, dated 2002)

How the values were obtained:
Assay type in all cases: in vivo
[1] = system: redroot pigweed (Amaranthus retroflexus, AMARE); assay: Pre-emerge test, greenhouse herbicide activity screening; conditions: rated 14 days after application, 0 = no damage, 100 = complete death
In short: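 Rating: 0–100 visual injury, 14 DAA. Application: acetone, 187 l/ha, 15–1000 g ai/ha, flat-fan track sprayer with nozzle 40–45 cm above soil or canopy. Post-emerge runs used 0.25% v/v surfactant on 2–3 leaf plants.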

[2] = system: sicklepod (Cassia obtusifolia, CASOB); assay: as above; conditions: rated 14 days after application, 0 = no damage, 100 = complete death
In short: (§1)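 Plants grown in 10 cm pots of sandy loam mix received acetone-dissolved compounds through a moving flat-fan nozzle. Doses ranged from 15 to 1000 g ai/ha. Pre-emerge pots were seeded one day earlier, post-emerge pots 8–21 days earlier. Fourteen days on, each pot was graded 0–100 for damage.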

[3] = system: velvetleaf (Abutilon theophrasti, ABUTH); assay: as above; conditions: rated 14 days after application, 0 = no damage, 100 = complete death
In short: as §1

[4] = system: barnyardgrass (Echinochloa crus-galli, ECHCG); assay: as above; conditions: rated 14 days after application, 0 = no damage, 100 = complete death
In short: as §1

[5] = system: ivyleaf morningglory (Ipomoea hederacea, IPOHE); assay: as above; conditions: rated 14 days after application, 0 = no damage, 100 = complete death
In short: as §1

[6] = system: lambsquarters (Chenopodium album, CHEAL); assay: as above; conditions: rated 14 days after application, 0 = no damage, 100 = complete death
In short: as §1

[7] = system: large crabgrass (Digitaria sanguinalis, DIGSA); assay: as above; conditions: rated 14 days after application, 0 = no damage, 100 = complete death
In short: as §1

[8] = system: common ragweed (Ambrosia artemisizfolia L., AMBEL); assay: as above; conditions: rated 14 days after application, 0 = no damage, 100 = complete death
In short: as §1

[9] = system: green foxtail (Setaria viridis, SETVI); assay: as above; conditions: rated 14 days after application, 0 = no damage, 100 = complete death
In short: as §1

[10] = system: johnsongrass (Sorghum halepense, SORHA); assay: as above; conditions: rated 14 days after application, 0 = no damage, 100 = complete death
In short: as §1

[11] = system: sicklepod (Cassia obtusifolia, CASOB); assay: Post-emerge test, greenhouse herbicide activity screening; conditions: post-emerge, 14 days after application, rating scale 0-100
In short: (§2)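 Compounds in acetone were track-sprayed at 187 l/ha, 15–1000 g ai/ha, onto sandy loam pots. Pre-emerge seeds were sown one day before spraying, with surface watering afterwards. Post-emerge plants were at the 2–3 leaf stage and sprayed with 0.25% v/v non-ionic surfactant. Injury was rated 0–100 at 14 days.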

[12] = system: velvetleaf (Abutilon theophrasti, ABUTH); assay: as above; conditions: post-emerge, 14 days after application, rating scale 0-100
In short: as §2

[13] = system: barnyardgrass (Echinochloa crus-galli, ECHCG); assay: as above; conditions: post-emerge, 14 days after application, rating scale 0-100
In short: as §2

[14] = system: ivyleaf morningglory (Ipomoea hederacea, IPOHE); assay: as above; conditions: post-emerge, 14 days after application, rating scale 0-100
In short: as §2

[15] = system: lambsquarters (Chenopodium album, CHEAL); assay: as above; conditions: post-emerge, 14 days after application, rating scale 0-100
In short: as §2

[16] = system: large crabgrass (Digitaria sanguinalis, DIGSA); assay: as above; conditions: post-emerge, 14 days after application, rating scale 0-100
In short: as §2

[17] = system: redroot pigweed (Amaranthus retroflexus, AMARE); assay: as above; conditions: post-emerge, 14 days after application, rating scale 0-100
In short: as §2

[18] = system: common ragweed (Ambrosia artemisizfolia L., AMBEL); assay: as above; conditions: post-emerge, 14 days after application, rating scale 0-100
In short: as §2

[19] = system: green foxtail (Setaria viridis, SETVI); assay: as above; conditions: post-emerge, 14 days after application, rating scale 0-100
In short: as §2

[20] = system: johnsongrass (Sorghum halepense, SORHA); assay: as above; conditions: post-emerge, 14 days after application, rating scale 0-100
In short: as §2

[21] = system: field corn (Zea mays L., var. Dekalb 535, CORN); assay: Pre-emerge test, crop safety; conditions: rated 14 days after application, 0 = no damage, 100 = complete death
In short: (§3)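 Herbicidal damage is scored 0 (none) to 100 (complete plant death) two weeks after a simulated field spray. Rates span 15–1000 g ai/ha, delivered in acetone at 187 l/ha. For post-emergence treatments, plants have 2–3 leaves and the spray carries 0.25% v/v non-ionic surfactant.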

[22] = system: upland rice (Oryza sp., var. Tebonnet, RICE); assay: Pre-emerge test, crop safety; conditions: rated 14 days after application, 0 = no damage, 100 = complete death
In short: as §3

[23] = system: field corn (Zea mays L., var. Dekalb 535, CORN); assay: Post-emerge test, crop safety; conditions: post-emerge, 14 days after application, rating scale 0-100
In short: (§4)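 Each test used a mechanized track sprayer delivering 187 l/ha of acetone solution at 15–1000 g ai/ha. Post-emerge foliage at 2–3 leaves was treated with added 0.25% v/v non-ionic surfactant and bottom-watered only. Injury was assessed on day 14, where 100 means total kill.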

[24] = system: upland rice (Oryza sp., var. Tebonnet, RICE); assay: Post-emerge test, crop safety; conditions: post-emerge, 14 days after application, rating scale 0-100
In short: as §4

COc1c(Cl)cc(F)c(-n2c(=O)cc(C(F)(F)F)n(C)c2=O)c1NC(=O)c1ccccc1F [2-39]
Pre-emerge Herbicidal Activity, phytotoxicity rating (0-100), AMARE ([1]; 63 g ai/ha): 100 | Pre-emerge Herbicidal Activity, phytotoxicity rating (0-100), AMARE ([1]; 250 g ai/ha): 100 | Pre-emerge Herbicidal Activity, phytotoxicity rating (0-100), CASOB ([2]; 63 g ai/ha): 100 | Pre-emerge Herbicidal Activity, phytotoxicity rating (0-100), CASOB ([2]; 250 g ai/ha): 100 | Pre-emerge Herbicidal Activity, phytotoxicity rating (0-100), ABUTH ([3]; 63 g ai/ha): 100 | Pre-emerge Herbicidal Activity, phytotoxicity rating (0-100), ABUTH ([3]; 250 g ai/ha): 100 | Pre-emerge Herbicidal Activity, phytotoxicity rating (0-100), ECHCG ([4]; 63 g ai/ha): 90 | Pre-emerge Herbicidal Activity, phytotoxicity rating (0-100), ECHCG ([4]; 250 g ai/ha): 100 | Pre-emerge Herbicidal Activity, phytotoxicity rating (0-100), IPOHE ([5]; 63 g ai/ha): 95 | Pre-emerge Herbicidal Activity, phytotoxicity rating (0-100), IPOHE ([5]; 250 g ai/ha): 100 | Pre-emerge Herbicidal Activity, phytotoxicity rating (0-100), CHEAL ([6]; 63 g ai/ha): 100 | Pre-emerge Herbicidal Activity, phytotoxicity rating (0-100), CHEAL ([6]; 250 g ai/ha): 100 | Pre-emerge Herbicidal Activity, phytotoxicity rating (0-100), DIGSA ([7]; 63 g ai/ha): 99 | Pre-emerge Herbicidal Activity, phytotoxicity rating (0-100), DIGSA ([7]; 250 g ai/ha): 100 | Pre-emerge Herbicidal Activity, phytotoxicity rating (0-100), AMBEL ([8]; 63 g ai/ha): 100 | Pre-emerge Herbicidal Activity, phytotoxicity rating (0-100), AMBEL ([8]; 250 g ai/ha): 100 | Pre-emerge Herbicidal Activity, phytotoxicity rating (0-100), SETVI ([9]; 63 g ai/ha): 100 | Pre-emerge Herbicidal Activity, phytotoxicity rating (0-100), SETVI ([9]; 250 g ai/ha): 100 | Pre-emerge Herbicidal Activity, phytotoxicity rating (0-100), SORHA ([10]; 63 g ai/ha): 60 | Pre-emerge Herbicidal Activity, phytotoxicity rating (0-100), SORHA ([10]; 250 g ai/ha): 100 | phytotoxicity rating CASOB ([11]; 63 g ai/ha): 60 | phytotoxicity rating CASOB ([11]; 250 g ai/ha): 90 | phytotoxicity rating ABUTH ([12]; 63 g ai/ha): 100 | phytotoxicity rating ABUTH ([12]; 250 g ai/ha): 100 | phytotoxicity rating ECHCG ([13]; 63 g ai/ha): 0 | phytotoxicity rating ECHCG ([13]; 250 g ai/ha): 60 | phytotoxicity rating IPOHE ([14]; 63 g ai/ha): 99 | phytotoxicity rating IPOHE ([14]; 250 g ai/ha): 100 | phytotoxicity rating CHEAL ([15]; 63 g ai/ha): 90 | phytotoxicity rating CHEAL ([15]; 250 g ai/ha): 95 | phytotoxicity rating DIGSA ([16]; 63 g ai/ha): 0 | phytotoxicity rating DIGSA ([16]; 250 g ai/ha): 50 | phytotoxicity rating AMARE ([17]; 63 g ai/ha): 70 | phytotoxicity rating AMARE ([17]; 250 g ai/ha): 95 | phytotoxicity rating AMBEL ([18]; 63 g ai/ha): 50 | phytotoxicity rating AMBEL ([18]; 250 g ai/ha): 95 | phytotoxicity rating SETVI ([19]; 63 g ai/ha): 20 | phytotoxicity rating SETVI ([19]; 250 g ai/ha): 80 | phytotoxicity rating SORHA ([20]; 63 g ai/ha): 10 | phytotoxicity rating SORHA ([20]; 250 g ai/ha): 60 | Pre-emerge phytotoxicity rating (0-100), crop damage, CORN ([21]; 63 g ai/ha): 70 | Pre-emerge phytotoxicity rating (0-100), crop damage, CORN ([21]; 250 g ai/ha): 95 | Pre-emerge phytotoxicity rating (0-100), crop damage, RICE ([22]; 63 g ai/ha): 90 | Pre-emerge phytotoxicity rating (0-100), crop damage, RICE ([22]; 250 g ai/ha): 99 | phytotoxicity rating CORN ([23]; 63 g ai/ha): 20 | phytotoxicity rating CORN ([23]; 250 g ai/ha): 70 | phytotoxicity rating RICE ([24]; 63 g ai/ha): 30 | phytotoxicity rating RICE ([24]; 250 g ai/ha): 70
